Results from paper PMC12834961 (Scientific Reports, 2025).

Target: epidermal growth factor receptor (EGFR) (Homo sapiens, UniProt P00533)
Experiment: SPR
Format: binding

Sequence of epidermal growth factor receptor (EGFR) (P00533 25-1210): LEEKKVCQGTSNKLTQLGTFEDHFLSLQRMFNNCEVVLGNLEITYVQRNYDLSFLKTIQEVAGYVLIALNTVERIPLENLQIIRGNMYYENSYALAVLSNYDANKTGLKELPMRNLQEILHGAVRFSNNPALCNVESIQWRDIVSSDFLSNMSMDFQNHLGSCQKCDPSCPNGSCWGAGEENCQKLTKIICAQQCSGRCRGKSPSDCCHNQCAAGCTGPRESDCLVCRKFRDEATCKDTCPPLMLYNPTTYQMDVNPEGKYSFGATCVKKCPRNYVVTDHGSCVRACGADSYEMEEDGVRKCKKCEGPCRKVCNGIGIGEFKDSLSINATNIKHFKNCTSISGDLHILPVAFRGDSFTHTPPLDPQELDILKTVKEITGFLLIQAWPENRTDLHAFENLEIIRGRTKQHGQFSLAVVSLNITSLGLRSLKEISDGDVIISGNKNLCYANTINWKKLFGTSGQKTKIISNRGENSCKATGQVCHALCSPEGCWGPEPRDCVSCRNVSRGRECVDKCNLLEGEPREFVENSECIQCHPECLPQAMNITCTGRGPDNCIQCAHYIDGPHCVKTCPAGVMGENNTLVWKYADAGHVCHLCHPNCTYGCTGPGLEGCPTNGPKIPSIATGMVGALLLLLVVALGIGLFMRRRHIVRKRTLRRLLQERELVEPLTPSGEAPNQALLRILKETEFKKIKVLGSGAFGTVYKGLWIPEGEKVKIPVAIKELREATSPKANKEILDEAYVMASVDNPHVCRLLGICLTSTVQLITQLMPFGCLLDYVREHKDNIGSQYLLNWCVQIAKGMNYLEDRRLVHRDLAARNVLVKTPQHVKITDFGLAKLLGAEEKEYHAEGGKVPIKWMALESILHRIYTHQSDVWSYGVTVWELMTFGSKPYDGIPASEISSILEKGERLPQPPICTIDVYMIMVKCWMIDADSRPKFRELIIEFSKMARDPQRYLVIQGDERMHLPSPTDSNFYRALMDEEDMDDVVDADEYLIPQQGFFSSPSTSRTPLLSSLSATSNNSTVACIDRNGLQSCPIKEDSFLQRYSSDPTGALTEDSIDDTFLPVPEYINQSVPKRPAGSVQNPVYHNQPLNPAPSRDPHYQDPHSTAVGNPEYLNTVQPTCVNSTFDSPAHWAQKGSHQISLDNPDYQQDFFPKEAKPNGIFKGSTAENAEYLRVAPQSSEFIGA

- Kd: ~56.1 µM
SMILES: O=c1c(-c2ccc(O[C@@H]3O[C@H](CO)[C@@H](O)[C@H](O)[C@H]3O)cc2)coc2cc(O)cc(O)c12 [Sop, Sophoricoside]
